Assays:
α7-nAChRs [1] = molecular target: T1, α7-nAChRs (Mus musculus, UniProt P49582); conditions: CD1 mice, i.v.; frontal cortex, thalamus, striatum, hippocampus; post-injection
α7-nAChRs [2] = molecular target: T1, α7-nAChRs; assay: blocking dissection study with PHA543613 in mice; conditions: PHA543613 0.5 mg/kg s.c., 15 min before tracer; 90 min after tracer

T1 sequence (P49582 23-502): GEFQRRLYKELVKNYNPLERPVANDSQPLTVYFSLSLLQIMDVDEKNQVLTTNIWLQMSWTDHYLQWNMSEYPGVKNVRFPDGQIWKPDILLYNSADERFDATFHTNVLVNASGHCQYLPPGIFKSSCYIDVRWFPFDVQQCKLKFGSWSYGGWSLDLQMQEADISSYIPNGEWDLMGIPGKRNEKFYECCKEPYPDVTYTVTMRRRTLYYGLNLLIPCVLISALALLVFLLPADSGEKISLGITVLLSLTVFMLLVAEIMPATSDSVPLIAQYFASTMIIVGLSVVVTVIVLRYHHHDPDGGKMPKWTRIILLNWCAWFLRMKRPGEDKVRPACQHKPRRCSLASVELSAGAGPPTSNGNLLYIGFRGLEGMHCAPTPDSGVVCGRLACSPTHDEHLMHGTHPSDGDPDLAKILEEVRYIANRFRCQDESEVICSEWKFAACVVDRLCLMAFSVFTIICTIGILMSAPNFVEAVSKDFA

Row | SMILES | time of peak radioactivity accumulation (α7-nAChRs [1]) | blockade of [^11C]rac-1 binding in the cerebellum (α7-nAChRs [2]) | inhibition of [^11C]rac-1 binding in hippocampus and frontal cortex (α7-nAChRs [2])
1 | [11CH3]N1CC2CN(c3ccc(-c4ccc5[nH]ccc5c4)nc3)CC21 (racemic) [[^11C]rac-1, 5-(5-(6-[^11C]methyl-3,6-diazabicyclo[3.2.0]heptan-3-yl)pyridin-2-yl)-1H-indole] | 30 min |  | 
2 | O=C(N[C@H]1CN2CCC1CC2)c1cc2ccoc2cn1 [PHA543613] |  | minimal | significantly inhibited
